Test results: publication PMC3604156 (Transplantation, 2013)
Where two headings read alike, the source gives them in different places.

Experiments:
[1] = assay type: in vivo, human; conditions: expressors vs nonexpressors
[2] = assay type: in vivo, human; conditions: for AUC0–inf: whole blood, single oral 5 mg/kg CsA, mean ± SD

average cumulative amount excreted in urine, higher in CYP3A5 expressors compared to nonexpressors [1]: 48%
AUCAM19/AUCAM1 ratio, higher in CYP3A5 expressors compared to nonexpressors ([2]; expressors vs nonexpressors): 46.9%
average blood AUC, higher in CYP3A5 expressors compared to nonexpressors ([2]; expressors vs nonexpressors): 47.4%
AUC0–inf ([2]; CYP3A5 expressors (n=12)): 1.36 ± 0.602 µg·h/mL
AUC0–inf ([2]; CYP3A5 nonexpressors (n=12)): 0.923 ± 0.343 µg·h/mL
Compound: CC[C@@H]1NC(=O)[C@H]([C@H](O)[C@H](C)C/C=C/CO)N(C)C(=O)[C@H](C(C)C)N(C)C(=O)[C@H](CC(C)C)N(C)C(=O)[C@H](CC(C)(C)O)N(C)C(=O)[C@@H](C)NC(=O)[C@H](C)NC(=O)[C@H](CC(C)C)N(C)C(=O)[C@H](C(C)C)NC(=O)[C@H](CC(C)C)N(C)C(=O)CN(C)C1=O [AM19]
